Assay results reported in patent US5756537A (Parkash S. Gill, M.D., Inc., priority 1996, dated 1998).
Converted amounts (≈) assume the structure as drawn. “Also recorded” adds a separate entry of the source. Like-named read-outs stand apart in the source and are kept apart here.

Assays:
Kaposi's sarcoma [1] = experiment: Example 4: person with KS; format: in vivo, human
Text: Due to very extensive disease, a representative area of tumor was monitored.

Kaposi's sarcoma [2] = experiment: Paclitaxel peak levels, AUC and relation to effect and side effects in KS patients
Description: (§1) This area is calculated using the equation: [formula] where λi is the exponent of the i-th exponential term, and Ci is the initial concentration of the i-th component of the curve. Curve fitting with this model yields the parameters Ci, C2, C3 λ1, λ2 and λ3. The half-lives (t1/2 s) are calculated from the equations t1/2 (α)=0.693/λ1, t1/2 (β)=0.693/λ2 and t1/2 (γ)=0.693/λ3. The total area under the curve (AUC0→.infin.)) is calculated using the linear trapezoidal method with extrapolation of the terminal phase to infinity (Clast /λ3), where Clast is the last measured concentration.
(§2) Typically, maintenance therapy is maintained for a minimum of 3-5 cycles.

[3] = as above; details: human, blood, iv
Description: as §1, §2

AIDS-KS [4] = experiment: Phase II trial, strata 2 (no prior systemic chemotherapy); format: in vivo, human; details: 100 mg/m^2 iv every 2 weeks
Text: Strata 2 of the study consisted of 20 patients with advanced AIDS-KS who had not received any prior systemic chemotherapy. The demographic characteristics and the results of treatment are provided below (Table 4-6).

bone marrow suppression [5] = details: human, in vivo
bone marrow suppression [6] = experiment: G-CSF use in the clinical trial patients
Kaposi's sarcoma [7] = experiment: Clinical results with paclitaxel in KS, overall
Description: The mode or route of administration can be parenteral: e.g., intravenous; intraperitoneal; subcutaneous; oral; or topical for cutaneous tumors.
All patients had advanced KS defined by more than 25 cutaneous lesions, or presence of visceral disease, or lymphedema. Other eligibility criteria included adequate hepatic, renal, and bone marrow function defined as a bilirubin<2.0 mg/dl, GOT<x upper limit of normal, creatinine<2.1 mg/dl, granulocytes>1000/mm^3, and platelets>75,000/mm^3. Patients could not have had prior therapy for their KS within the last 2 weeks. The dosage and schedule was 100 mg/m^2 intravenously every 2 weeks.

[8] = system: AIDS-KS spindle cell lines, KS Y-1 P105; experiment: Cell proliferation assay (cell counting, day 5 or 6); format: cell-based
Description: FIG. 1. […] At that time surviving cells were assayed by cell counting.
AIDS-KS spindle cell lines were seeded at a density of 1.0×10^4 cells/well in a 24-well plate in KS medium. […] The cell counts were performed on day 5 or 6 using a Coulter Particulate Counter (Hialeah, Fla.).

Kaposi's sarcoma [9] = experiment: Example 5: pilot study of ten patients; format: in vivo, human; details: 100 mg/m^2 over 3 hr every 2 weeks
Text: Seven of these ten patients had previously been treated with one or more previous regimens cytotoxic chemotherapy regimens. All were severely immunodeficient with history of opportunistic infection in six, advanced KS with numerous cutaneous KS lesions, involvement of visceral disease (which is generally fatal) in five.

[10] = system: ovarian and breast cancer; details: cited from earlier work
Kaposi's sarcoma [11] = experiment: Example 3: HIV-negative person with KS; format: in vivo, human
Text: Patient, a very fragile person presented with KS. […] Other medical problems included hypertension, cardiac arrhythmia, congestive heart failure, and hypothyroidism.
Prior therapy included radiation therapy. The radiated areas included both feet and eye lids. […] Cytotoxic chemotherapy was given with combination chemotherapy consisting of bleomycin, vincristine and adriamycin.
Premedication included dexamethasone, diphenhydramine, and cimetidine.

Kaposi's sarcoma [12] = details: […]^2 to 175 mg/m^2 over three hours, every 21 days; cited from earlier work
AIDS-KS [13] = system: AIDS-KS
KS Y-1 cells = experiment: In vivo KS tumor model in nude mice; parameters: species or system Balbc/nu mouse; details: 10 mg/kg intraperitoneally, days 1, 5 and 9; measured day 14 and 21
Description: FIG. 2. […] Tumor size was measured on days 14 and 21.
KS cell lines that propagate in the immunodeficient mouse were treated with paclitaxel. 1.0×10^7 cells were implanted subcutaneously in each Balbc/nu (Charles River) mouse.

[14] = of patients with no G-CSF prior to paclitaxel
[15] = 75 mg/m^2 every two weeks, three hour infusion
[16] = 33 evaluable, 100 mg/m^2 iv every 2 weeks

CC(=O)O[C@H]1C(=O)[C@@]2(C)[C@H]([C@H](OC(=O)c3ccccc3)[C@]3(O)C[C@H](OC(=O)[C@H](O)[C@@H](NC(=O)c4ccccc4)c4ccccc4)C(C)=C1C3(C)C)[C@]1(OC(C)=O)CO[C@@H]1C[C@@H]2O [paclitaxel]
KS lesions three months after initiation of the lower dose (Kaposi's sarcoma [1]; 35 mg/m^2 every 2 weeks): completely flat (Clinical Complete Remission)
tolerability (Kaposi's sarcoma [1]; 35 mg/m^2 every 2 weeks): well tolerated, and their hair grew back while on therapy
hair loss (Kaposi's sarcoma [1]; 75 mg/m^2): severe hair loss
response to the first dose (Kaposi's sarcoma [1]; 75 mg/m^2): rapid response
lesion count on the left forearm (Kaposi's sarcoma [1]; after single dose of 75 mg/m^2, 32 lesions prior to paclitaxel): 12 lesions
raised lesions on the left forearm (Kaposi's sarcoma [1]; after single dose of 75 mg/m^2, all 32 raised prior to therapy): two
length of time peak levels are achieved (Kaposi's sarcoma [2]; 50-100 mg/m^2, three hour bolus, would be expected): less than 15 hours
myelosuppression (Kaposi's sarcoma [2]; AUC 1-4 μM/hour, three hour bolus of 50-100 mg/m^2 every 14 days): not observed
unwanted hematological and non-hematological side effects (Kaposi's sarcoma [2]; peak levels maintained at 15 hours or less): absent
neutropenia and other side effects (Kaposi's sarcoma [2]; threshold level 0.1-1 μM for shorter periods, AUC 1-4 μM/hour): reduce neutropenia and other side effects
Cmax [3]: 100 to 1000 nM
Cycles to response, range (AIDS-KS [4]): 3-9 cycles
Median cycles to response (AIDS-KS [4]): 3 cycles
Complete response (count) (AIDS-KS [4]; 19 evaluable): 1
Complete response (percent) (AIDS-KS [4]; 19 evaluable): 5%
Minimal response/stable disease (count) (AIDS-KS [4]; 19 evaluable): 6
Minimal response/stable disease (percent) (AIDS-KS [4]; 19 evaluable): 32%
Partial response (count) (AIDS-KS [4]; 19 evaluable): 12
Partial response (percent) (AIDS-KS [4]; 19 evaluable): 63%
Progression (count) (AIDS-KS [4]; 19 evaluable): 0
Anemia, Grade 2 (count) (AIDS-KS [4]; n = 20): 6
Anemia, Grade 2 (percent) (AIDS-KS [4]; n = 20): 30%
Anemia, Grade 3 (count) (AIDS-KS [4]; n = 20): 0
Anemia, Grade 4 (count) (AIDS-KS [4]; n = 20): 0
Diarrhea, Grade 3 (AIDS-KS [4]; n = 20): 0
Diarrhea, Grade 4 (AIDS-KS [4]; n = 20): 0
Fevers, Grade 3 (AIDS-KS [4]; n = 20): 1
Fevers, Grade 4 (AIDS-KS [4]; n = 20): 0
Myalgia, Grade 3 (AIDS-KS [4]; n = 20): 0
Nausea/Vomiting, Grade 1/2 (AIDS-KS [4]; n = 20): 8
Neuropathy, Grade 3 (AIDS-KS [4]; n = 20): 0
Neuropathy, Grade 4 (AIDS-KS [4]; n = 20): 0
Neutropenia, Grade 2 (count) (AIDS-KS [4]; n = 20): 4
Neutropenia, Grade 2 (percent) (AIDS-KS [4]; n = 20): 20%
Neutropenia, Grade 3 (count) (AIDS-KS [4]; n = 20): 2
Neutropenia, Grade 3 (percent) (AIDS-KS [4]; n = 20): 10%
Neutropenia, Grade 4 (count) (AIDS-KS [4]; n = 20): 3
Neutropenia, Grade 4 (percent) (AIDS-KS [4]; n = 20): 15%
Rash ± Pruritus, Grade 1/2 (AIDS-KS [4]; n = 20): 9
Rash ± Pruritus, Grade 3 (AIDS-KS [4]; n = 20): 0
Thrombocytopenia, Grade 2 (count) (AIDS-KS [4]; n = 20): 0
Thrombocytopenia, Grade 3 (count) (AIDS-KS [4]; n = 20): 0
Thrombocytopenia, Grade 4 (count) (AIDS-KS [4]; n = 20): 0
Any G-CSF use (percent) (bone marrow suppression [5]): 69%
Never required G-CSF (percent) (bone marrow suppression [5]): 48%
patients who did not require G-CSF (bone marrow suppression [5]): approximately 50%
Any G-CSF use (fraction) (bone marrow suppression [6]; n = 43): 30/43
Never required G-CSF (fraction) (bone marrow suppression [6]; [14]): 13/27
Required G-CSF after start of paclitaxel therapy (fraction) (bone marrow suppression [6]; [14]): 14/27
bone marrow suppression (including neutropenia) (bone marrow suppression [6]; patients who did not require G-CSF): not observed
effectiveness in KS versus other tumors (Kaposi's sarcoma [7]; 100 mg/m^2 every 2 weeks): more effective therapeutically to KS compared to any other tumor studied thus far in the clinic
tolerability (Kaposi's sarcoma [7]; 100 mg/m^2 every 2 weeks): extremely well tolerated
median duration of response (Kaposi's sarcoma [7]; 35-100 mg/m^2 every 10-16 days): greater than 20 weeks
median time to achieve partial response (Kaposi's sarcoma [7]; 35-100 mg/m^2 every 10-16 days): 6-10 weeks
median time to achieve partial response (cycles) (Kaposi's sarcoma [7]; 35-100 mg/m^2 every 10-16 days): 3-5 cycles
side effects (Kaposi's sarcoma [7]; aside from mild to moderate hair loss and occasional other mild toxicities): the lack of side effects is extraordinary
duration of response as reflected by the median number of cycles tolerated, versus all previously studied drugs (Kaposi's sarcoma [7]; compared to all previously studied drugs and combinations): two fold longer
duration of response, range (Kaposi's sarcoma [7]; up to): up to 60 weeks
IC50 ([8]; P1(0.5), KS Y-1 P105, treated day 1 and 3, counted day 5 or 6): 2 to 3 ng/mL (≈ 2.34 to 3.51 nM)
sensitivity of KS cells to paclitaxel in vitro ([8]; in vitro): as sensitive to paclitaxel as human ovarian cell lines; also recorded: unusual sensitivity
patients with partial or complete response (Kaposi's sarcoma [9]): five of the ten
responses in patients who had previously failed chemotherapy (Kaposi's sarcoma [9]): Responses were observed
responses in patients with otherwise fatal pulmonary disease (Kaposi's sarcoma [9]): Responses were also observed
tolerability (Kaposi's sarcoma [9]): well tolerated
tumor associated edema (Kaposi's sarcoma [9]): resolution of tumor associated edema was observed
dose generally required to obtain responses ([10]; 3-96 hour infusion, every 3-4 weeks): 175-200 mg/m^2
threshold peak level necessary for pharmaceutical effect ([10]; Wiernak, et al.): 0.1 µM
disease status after one cycle (Kaposi's sarcoma [11]; 35 mg/m^2, after relapse): stable
number of doses to complete tumor resolution (Kaposi's sarcoma [11]; 75 mg/m^2 every two weeks): five
period to complete tumor resolution (Kaposi's sarcoma [11]; 75 mg/m^2 every two weeks): eight
response (Kaposi's sarcoma [11]; [15]): remarkable response with resolution of KS, oozing, foul smell and edema
toxicities experienced (Kaposi's sarcoma [11]; [15]): skin itching and moderate hair loss
bone marrow suppression and neutropenia (Kaposi's sarcoma [11]; 75 mg/m^2 every two weeks, three hour infusion, no G-CSF): lack of bone marrow suppression and accompanying neutropenia
biopsy of the area of skin tumor (Kaposi's sarcoma [11]; after 75 mg/m^2 every two weeks): lack of KS pathologically
remission after the last combination chemotherapy treatment (Kaposi's sarcoma [11]; paclitaxel alone and in combination with liposomally encapsulated doxorubicin for five months): eight
myelosuppression (Kaposi's sarcoma [12]): increased incidents of myelosuppression
Cycles to response, range (AIDS-KS [13]; 100 mg/m^2 iv every 2 weeks): 3-9 cycles
Median cycles to response (AIDS-KS [13]; 100 mg/m^2 iv every 2 weeks): 5 cycles
median duration of response (AIDS-KS [13]; 100 mg/m^2 iv every 2 weeks): ≥ 5 months
Complete response (count) (AIDS-KS [13]; [16]): 0
Minimal response/stable disease (count) (AIDS-KS [13]; [16]): 12
Minimal response/stable disease (percent) (AIDS-KS [13]; [16]): 34%
Partial response (count) (AIDS-KS [13]; [16]): 23
Partial response (percent) (AIDS-KS [13]; [16]): 66%
Progression (count) (AIDS-KS [13]; [16]): 0
Median Survival (AIDS-KS [13]; not reached): > 6 months
activity in patients with prior systemic chemotherapy (AIDS-KS [13]; preliminary results): confirmed
tumor growth (KS Y-1 cells): markedly inhibited

bleomycin
pneumonitis (Kaposi's sarcoma [11]; combination chemotherapy of bleomycin, vincristine and adriamycin): pneumonitis with bilateral diffuse infiltration
